Assay results as given in patent US10494355B2, “Oxadiazole amine derivative compounds as histone deacetylase 6 inhibitor, and the pharmaceutical composition comprising the same” (Chong Kun Dang Pharmaceutical Corp., priority 2015, dated 2019).

Key:
human recombinant HDAC1 = biological target: T1, human recombinant HDAC1 (Homo sapiens, UniProt Q13547); experiment: HDAC1 enzyme activity inhibition assay (HDAC Fluorimetric Drug Discovery Kit); assay type: biochemical; settings: human recombinant HDAC1, 10 μM substrate, 30° C. 60 minutes
T1 construct: purchased Enzo Life Science BML-SE456
Outline: (§1)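 Recombinant enzyme (0.3 μg) was incubated with 5-fold serially diluted compound and 10 μM Fluor de Lys-SIRT1 substrate for 60 min at 30° C. Developer II was then added for 30 min, fluorescence read at Ex 360/Em 460, and IC50 values were calculated.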

human recombinant HDAC6 = biological target: T2, human recombinant HDAC6 (Homo sapiens, UniProt Q9UBN7); experiment: HDAC6 enzyme activity inhibition assay (HDAC Fluorimetric Drug Discovery Kit); assay type: biochemical; settings: 30° C. 60 minutes
T2 construct: purchased Calbiochem 382180
T2 sequence (Q9UBN7 1-1215): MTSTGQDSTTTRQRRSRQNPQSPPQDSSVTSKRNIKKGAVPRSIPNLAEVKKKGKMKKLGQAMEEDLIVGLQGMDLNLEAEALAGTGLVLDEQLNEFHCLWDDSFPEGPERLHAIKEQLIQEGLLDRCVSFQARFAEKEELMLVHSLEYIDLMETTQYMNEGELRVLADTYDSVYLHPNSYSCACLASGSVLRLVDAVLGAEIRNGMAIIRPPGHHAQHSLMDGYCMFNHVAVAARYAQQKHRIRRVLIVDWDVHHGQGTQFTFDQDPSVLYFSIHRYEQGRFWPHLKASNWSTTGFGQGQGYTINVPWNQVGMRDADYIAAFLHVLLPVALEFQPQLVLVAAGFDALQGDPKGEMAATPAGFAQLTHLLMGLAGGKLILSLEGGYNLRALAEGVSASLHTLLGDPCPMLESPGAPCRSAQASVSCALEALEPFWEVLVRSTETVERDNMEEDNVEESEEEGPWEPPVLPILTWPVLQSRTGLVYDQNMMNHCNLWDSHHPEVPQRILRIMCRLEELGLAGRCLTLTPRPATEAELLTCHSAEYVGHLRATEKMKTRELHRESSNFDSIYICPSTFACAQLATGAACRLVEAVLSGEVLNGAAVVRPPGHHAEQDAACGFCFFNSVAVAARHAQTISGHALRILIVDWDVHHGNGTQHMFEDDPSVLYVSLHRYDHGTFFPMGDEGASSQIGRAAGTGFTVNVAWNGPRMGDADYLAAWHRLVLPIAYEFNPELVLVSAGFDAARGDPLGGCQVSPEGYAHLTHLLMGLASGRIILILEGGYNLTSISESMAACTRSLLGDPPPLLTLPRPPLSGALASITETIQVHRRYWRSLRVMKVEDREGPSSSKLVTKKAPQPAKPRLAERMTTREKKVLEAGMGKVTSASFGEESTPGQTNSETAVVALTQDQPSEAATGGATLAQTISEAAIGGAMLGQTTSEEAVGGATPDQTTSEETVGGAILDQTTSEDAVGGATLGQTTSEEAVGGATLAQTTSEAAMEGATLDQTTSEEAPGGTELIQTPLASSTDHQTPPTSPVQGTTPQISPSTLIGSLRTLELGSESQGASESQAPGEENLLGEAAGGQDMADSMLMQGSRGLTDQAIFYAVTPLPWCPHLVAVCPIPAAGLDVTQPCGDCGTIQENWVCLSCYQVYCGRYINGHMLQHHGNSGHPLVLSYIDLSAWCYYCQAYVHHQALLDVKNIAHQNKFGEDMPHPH
Outline: as §1

T1 sequence (Q13547 whole entry): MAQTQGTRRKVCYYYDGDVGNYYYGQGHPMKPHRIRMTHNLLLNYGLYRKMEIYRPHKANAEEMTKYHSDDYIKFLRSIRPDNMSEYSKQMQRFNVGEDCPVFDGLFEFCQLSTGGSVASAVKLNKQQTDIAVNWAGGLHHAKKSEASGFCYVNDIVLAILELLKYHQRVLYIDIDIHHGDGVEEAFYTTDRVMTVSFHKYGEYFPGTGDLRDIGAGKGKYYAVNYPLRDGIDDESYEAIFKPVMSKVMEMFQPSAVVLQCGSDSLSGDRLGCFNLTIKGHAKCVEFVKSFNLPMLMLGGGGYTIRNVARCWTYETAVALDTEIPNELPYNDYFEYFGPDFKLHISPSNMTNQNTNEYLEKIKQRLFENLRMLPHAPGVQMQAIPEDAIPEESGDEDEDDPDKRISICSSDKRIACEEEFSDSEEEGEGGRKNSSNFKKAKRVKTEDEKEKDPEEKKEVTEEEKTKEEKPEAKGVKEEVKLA

IC50 (human recombinant HDAC1) [nM] | IC50 (human recombinant HDAC6) [nM] | SMILES
> 10000 | 120 | FC(F)c1nnc(-c2cnc(NC3(c4ccc(Cl)c(Cl)c4)CCC3)nc2)o1 [Compound 1834, N-(1-(3,4-dichlorophenyl)cyclobutyl)-5-(5-(difluoromethyl)-1,3,4-oxadiazol-2-yl)pyrimidin-2-amine]
> 10000 | 31 | Cc1ccccc1C1(Nc2ncc(-c3nnc(C(F)F)o3)cn2)CC1 [Compound 2055, 5-(5-(difluoromethyl)-1,3,4-oxadiazol-2-yl)-N-(1-(o-tolyl)cyclopropyl)pyrimidin-2-amine]
> 10000 | 277 | FC(F)c1nnc(-c2cnc(NC3(c4ccc(C(F)(F)F)cc4)CCC3)nc2)o1 [Compound 2043, 5-(5-(difluoromethyl)-1,3,4-oxadiazol-2-yl)-N-(1-(4-(trifluoromethyl)phenyl)cyclobutyl)pyrimidin-2-amine]
> 10000 | 168 | COc1cccc(C2(Nc3ncc(-c4nnc(C(F)(F)F)o4)cn3)CCC2)c1 [Compound 1606, N-(1-(3-methoxyphenyl)cyclobutyl)-5-(5-(trifluoromethyl)-1,3,4-oxadiazol-2-yl)pyrimidin-2-amine]
> 10000 | 1470 | Fc1c(Cl)cccc1C1(Nc2ncc(-c3nnc(C(F)(F)F)o3)cn2)CCC1 [Compound 1966, N-(1-(3-chloro-2-fluorophenyl)cyclobutyl)-5-(5-(trifluoromethyl)-1,3,4-oxadiazol-2-yl)pyrimidin-2-amine]
> 10000 | 100 | Fc1ccc(C2(Nc3ncc(-c4nnc(C(F)(F)F)o4)cn3)CC2)cc1 [Compound 1712, N-(1-(4-fluorophenyl)cyclopropyl)-5-(5-(trifluoromethyl)-1,3,4-oxadiazol-2-yl)pyrimidin-2-amine]
> 10000 | 189 | FC(F)c1nnc(-c2cnc(NC3(c4ccc(N5CCCCC5)cc4)CCC3)nc2)o1 [Compound 2041, 5-(5-(difluoromethyl)-1,3,4-oxadiazol-2-yl)-N-(1-(4-(piperidin-1-yl)phenyl)cyclobutyl)pyrimidin-2-amine]
> 10000 | 51 | COc1ccc(C2(Nc3ncc(-c4nnc(C(F)F)o4)cn3)CC2)cc1 [Compound 2049, 5-(5-(difluoromethyl)-1,3,4-oxadiazol-2-yl)-N-(1-(4-methoxyphenyl)cyclopropyl)pyrimidin-2-amine]
> 10000 | 43 | Fc1cccc(C2(Nc3ncc(-c4nnc(C(F)F)o4)cn3)CCC2)c1F [Compound 1827, 5-(5-(difluoromethyl)-1,3,4-oxadiazol-2-yl)-N-(1-(2,3-difluorophenyl)cyclobutyl)pyrimidin-2-amine]
> 10000 | 219 | Fc1ccc(C2(Nc3ncc(-c4nnc(C(F)(F)F)o4)cn3)CC2)cc1Cl [Compound 1723, N-(1-(3-chloro-4-fluorophenyl)cyclopropyl)-5-(5-(trifluoromethyl)-1,3,4-oxadiazol-2-yl)pyrimidin-2-amine]
> 10000 | 154 | Fc1cccc(C2(Nc3ncc(-c4nnc(C(F)(F)F)o4)cn3)CCC2)c1 [Compound 1608, N-(1-(3-fluorophenyl)cyclobutyl)-5-(5-(trifluoromethyl)-1,3,4-oxadiazol-2-yl)pyrimidin-2-amine]
> 10000 | 450 | FC(F)(F)c1cccc(C2(Nc3ncc(-c4nnc(C(F)(F)F)o4)cn3)CC2)c1 [Compound 1741, 5-(5-(trifluoromethyl)-1,3,4-oxadiazol-2-yl)-N-(1-(3-(trifluoromethyl)phenyl)cyclopropyl)pyrimidin-2-amine]
> 10000 | 90 | Fc1ccc(C2(Nc3ncc(-c4nnc(C(F)F)o4)cn3)CCC2)c(F)c1 [Compound 2027, 5-(5-(difluoromethyl)-1,3,4-oxadiazol-2-yl)-N-(1-(2,4-difluorophenyl)cyclobutyl)pyrimidin-2-amine]
> 10000 | 115 | Fc1ccc(Cl)c(C2(Nc3ncc(-c4nnc(C(F)F)o4)cn3)CCC2)c1 [Compound 1961, N-(1-(2-chloro-5-fluorophenyl)cyclobutyl)-5-(5-(difluoromethyl)-1,3,4-oxadiazol-2-yl)pyrimidin-2-amine]
> 10000 | 305 | FC(F)(F)c1nnc(-c2cnc(NC3(c4ccccc4)CCCC3)nc2)o1 [Compound 1580, N-(1-phenylcyclopentyl)-5-(5-(trifluoromethyl)-1,3,4-oxadiazol-2-yl)pyrimidin-2-amine]
> 10000 | 1740 | FC(F)(F)c1ccc(C2(Nc3ncc(-c4nnc(C(F)(F)F)o4)cn3)CCC2)cc1 [Compound 2044, 5-(5-(trifluoromethyl)-1,3,4-oxadiazol-2-yl)-N-(1-(4-(trifluoromethyl)phenyl)cyclobutyl)pyrimidin-2-amine]
> 10000 | 420 | Fc1ccc(C2(Nc3ncc(-c4nnc(C(F)(F)F)o4)cn3)CC2)cc1F [Compound 1780, N-(1-(3,4-difluorophenyl)cyclopropyl)-5-(5-(trifluoromethyl)-1,3,4-oxadiazol-2-yl)pyrimidin-2-amine]
> 10000 | 26 | FC(F)c1nnc(-c2cnc(NC3(c4cccc(Cl)c4)CC3)nc2)o1 [Compound 2050, N-(1-(3-chlorophenyl)cyclopropyl)-5-(5-(difluoromethyl)-1,3,4-oxadiazol-2-yl)pyrimidin-2-amine]
> 10000 | 387 | FC(F)c1nnc(-c2cnc(NC3(c4ccc(C5CCN(C6COC6)CC5)cc4)CCC3)nc2)o1 [Compound 2023, 5-(5-(difluoromethyl)-1,3,4-oxadiazol-2-yl)-N-(1-(4-(1-(oxetan-3-yl)piperidin-4-yl)phenyl)cyclobutyl)pyrimidin-2-amine]
> 10000 | 2520 | FC(F)(F)c1nnc(-c2cnc(NC3(c4ccc(Cl)cc4Cl)CCC3)nc2)o1 [Compound 1837, N-(1-(2,4-dichlorophenyl)cyclobutyl)-5-(5-(trifluoromethyl)-1,3,4-oxadiazol-2-yl)pyrimidin-2-amine]
> 10000 | 35 | Fc1cc(Cl)ccc1C1(Nc2ncc(-c3nnc(C(F)F)o3)cn2)CC1 [Compound 2056, N-(1-(4-chloro-2-fluorophenyl)cyclopropyl)-5-(5-(difluoromethyl)-1,3,4-oxadiazol-2-yl)pyrimidin-2-amine]
> 10000 | 120 | Fc1cc(F)c(C2(Nc3ncc(-c4nnc(C(F)F)o4)cn3)CCC2)cc1F [Compound 1826, 5-(5-(difluoromethyl)-1,3,4-oxadiazol-2-yl)-N-(1-(2,4,5-trifluorophenyl)cyclobutyl)pyrimidin-2-amine]
> 10000 | 89 | Fc1ccc(Cl)cc1C1(Nc2ncc(-c3nnc(C(F)F)o3)cn2)CCC1 [Compound 1963, N-(1-(5-chloro-2-fluorophenyl)cyclobutyl)-5-(5-(difluoromethyl)-1,3,4-oxadiazol-2-yl)pyrimidin-2-amine]
> 10000 | 758 | FC(F)c1nnc(-c2cnc(NC3(Cc4ccccc4)CCC3)nc2)o1 [Compound 2030, N-(1-benzylcyclobutyl)-5-(5-(difluoromethyl)-1,3,4-oxadiazol-2-yl)pyrimidin-2-amine]
